The source of these data is ChEMBL document CHEMBL5352405, “Discovery of azaspirocyclic 1H-3,4,5-Trisubstitued pyrazoles as novel G2019S-LRRK2 selective kinase inhibitors” (Eur J Med Chem, 2022).

Series [1] in a line: in vitro. The note with it: human, Caco-2.
A short description of series [2]: in vitro. The note with it: mouse, liver microsomes. Background: Liver microsomes are vesicles of endoplasmic reticulum, rich in cytochrome P450 enzymes.

A word on the Papp A→B: it is how fast a substance crosses the layer from the apical side. A low value points to slow passage. What is called half-life is the time in which the quantity being followed falls by half. In the case of `Cc1[nH]nc(-c2ccncc2)c1-c1ccc(-c2cccc(S(N)(=O)=O)c2)c(C2CC2)c1`, in the series “in vitro [1]”, the Papp A→B worked out at 8.8 ×10⁻⁶ cm/s. In addition, in “in vitro [2]”, the half-life turned out to be 30 min.
